# From ChEMBL document CHEMBL4673218, “Kojyl cinnamate esters are peroxisome proliferator-activated receptor α/γ dual agonists” (Bioorg Med Chem, 2018)
# Activity calls are given as the source filed them. No cut-off for these calls is given here.
# How the values were obtained:
# NHEK [1] = assay: Inhibition of UVB-induced MMP1 level in human NHEK cells at 10 uM incubated for 24 hrs by ELISA; format: functional, cell-based
# [2] = target: T1, PPAR alpha/gamma (Homo sapiens) (UniProt P37231+Q07869); assay: Agonist activity at PPARalpha/PPARgamma in human AT-MSC cells assessed as upregulation of adiponectin mRNA at 10 uM incubated for 3 days by qRT-PCR analysis; format: cell-based; details: Adipose tissue derived mesenchymal stem cell, filed as agonist, time 3.0 day
# NHEK [3] = assay: Inhibition of UVB-induced PTGS2 mRNA in human NHEK cells at 10 uM incubated for 24 hrs by qRT-PCR analysis; format: functional, cell-based
# [4] = target: T1, PPAR alpha/gamma (Homo sapiens); assay: Agonist activity at PPARalpha/PPARgamma in human AT-MSC cells assessed as upregulation of SCD1 mRNA at 10 uM incubated for 3 days by qRT-PCR analysis; format: cell-based; details: Adipose tissue derived mesenchymal stem cell, filed as agonist, time 3.0 day
# [5] = target: T1, PPAR alpha/gamma (Homo sapiens); assay: Agonist activity at PPARalpha/PPARgamma in human AT-MSC cells assessed as upregulation of FASN mRNA at 10 uM incubated for 3 days by qRT-PCR analysis; format: cell-based; details: Adipose tissue derived mesenchymal stem cell, filed as agonist, time 3.0 day
# NHEK [6] = assay: Inhibition of UVB-induced PGE2 level in human NHEK cells at 10 uM incubated for 24 hrs by ELISA; format: functional, cell-based
# [7] = target: T2, Oxysterols receptor LXR-alpha (Homo sapiens) (UniProt Q13133); assay: Binding affinity to human LXRalpha at 30 uM by competitive ligand binding based TR-FRET assay
# T2 sequence (whole entry): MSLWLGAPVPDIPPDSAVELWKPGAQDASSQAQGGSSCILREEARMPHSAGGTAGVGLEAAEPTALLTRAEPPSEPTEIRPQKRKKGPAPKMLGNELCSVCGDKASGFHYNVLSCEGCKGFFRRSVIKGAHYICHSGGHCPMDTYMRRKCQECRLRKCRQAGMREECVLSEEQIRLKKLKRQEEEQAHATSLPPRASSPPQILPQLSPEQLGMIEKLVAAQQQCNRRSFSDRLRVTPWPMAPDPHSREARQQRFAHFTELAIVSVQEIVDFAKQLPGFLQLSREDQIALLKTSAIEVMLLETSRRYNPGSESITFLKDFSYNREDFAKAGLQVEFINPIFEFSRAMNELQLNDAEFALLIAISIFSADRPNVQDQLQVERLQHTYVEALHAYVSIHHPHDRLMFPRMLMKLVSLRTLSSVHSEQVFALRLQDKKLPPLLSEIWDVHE
# NHEK [8] = assay: Inhibition of UVB-induced MMP1 mRNA in human NHEK cells at 10 uM incubated for 24 hrs by qRT-PCR analysis; format: functional, cell-based
# [9] = target: T1, PPAR alpha/gamma (Homo sapiens); assay: Agonist activity at PPARalpha/PPARgamma in human NHEK cells assessed as upregulation of FADS1 mRNA at 10 uM incubated for 3 days by qRT-PCR analysis; format: cell-based; details: filed as agonist, time 3.0 day
# [10] = target: T3, Peroxisome proliferator-activated receptor gamma (Homo sapiens) (UniProt P37231); assay: Binding affinity to human recombinant PPARgamma at 30 uM by competitive binding based TR-FRET assay relative to control; details: filed as agonist
# T3 sequence (whole entry): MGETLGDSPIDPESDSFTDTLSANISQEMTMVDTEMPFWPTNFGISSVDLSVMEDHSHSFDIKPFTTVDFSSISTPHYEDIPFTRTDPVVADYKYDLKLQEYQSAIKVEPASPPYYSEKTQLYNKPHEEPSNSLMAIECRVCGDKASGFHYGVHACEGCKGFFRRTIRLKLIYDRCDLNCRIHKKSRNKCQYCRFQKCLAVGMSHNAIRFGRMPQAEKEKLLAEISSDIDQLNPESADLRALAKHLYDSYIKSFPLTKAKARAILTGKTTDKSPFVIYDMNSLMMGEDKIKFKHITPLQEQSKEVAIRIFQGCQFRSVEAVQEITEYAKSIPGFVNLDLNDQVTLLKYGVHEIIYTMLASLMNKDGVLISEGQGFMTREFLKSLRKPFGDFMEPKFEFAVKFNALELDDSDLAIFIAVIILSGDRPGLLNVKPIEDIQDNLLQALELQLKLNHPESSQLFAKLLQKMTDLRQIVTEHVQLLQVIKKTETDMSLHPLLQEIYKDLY
# [11] = target: T1, PPAR alpha/gamma (Homo sapiens); assay: Agonist activity at PPARalpha/PPARgamma in human NHEK cells assessed as upregulation of ACACB mRNA at 10 uM incubated for 3 days by qRT-PCR analysis; format: cell-based; details: time 3.0 day
# [12] = target: T1, PPAR alpha/gamma (Homo sapiens); assay: Agonist activity at PPARalpha/PPARgamma in human NHEK cells assessed as upregulation of HMGCR mRNA at 10 uM incubated for 3 days by qRT-PCR analysis; format: cell-based; details: time 3.0 day
# [13] = target: T4, Peroxisome proliferator-activated receptor alpha (Homo sapiens) (UniProt Q07869); assay: Binding affinity to human recombinant PPARalpha at 30 uM by competitive binding based TR-FRET assay relative to control; details: filed as agonist
# T4 sequence (whole entry): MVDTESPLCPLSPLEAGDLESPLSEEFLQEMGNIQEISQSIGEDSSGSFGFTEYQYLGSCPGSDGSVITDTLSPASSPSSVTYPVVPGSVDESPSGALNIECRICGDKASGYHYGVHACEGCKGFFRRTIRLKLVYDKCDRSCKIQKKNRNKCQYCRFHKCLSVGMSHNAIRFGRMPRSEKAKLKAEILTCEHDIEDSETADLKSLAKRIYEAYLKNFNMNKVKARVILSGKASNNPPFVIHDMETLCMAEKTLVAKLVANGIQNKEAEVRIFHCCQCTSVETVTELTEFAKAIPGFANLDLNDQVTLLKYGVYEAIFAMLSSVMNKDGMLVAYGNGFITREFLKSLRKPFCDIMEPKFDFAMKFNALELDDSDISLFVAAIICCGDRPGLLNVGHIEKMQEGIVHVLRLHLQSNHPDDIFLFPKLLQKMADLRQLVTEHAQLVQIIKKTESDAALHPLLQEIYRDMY
smiles,measurement,setting,value
COc1ccc(OC)c(/C=C/C(=O)OCc2cc(=O)c(O)co2)c1,inhibition,NHEK [1],Active
same,Activity,[2],Active
same,inhibition,NHEK [3],Active
same,Activity,[4],Active
same,Activity,[5],Active
same,inhibition,NHEK [6],Active
same,Activity,[7],inactive
same,inhibition,NHEK [8],Active
same,Activity,[9],Active
same,Activity,[10],77%
same,Activity,[11],inactive
same,Activity,[12],inactive
same,Activity,[13],59%
